Data reported in patent publication US20220205982A1 (CHILDREN'S HOSPITAL MEDICAL CENTER, priority 2019, published 2022).
Several values for one entry are separate records, joined by “and”; a condition that tells them apart may be missing. Identical values can stand only once. Like-named read-outs stand apart in the source and are kept apart here.

Assay: Melphalan test dose and full dose pharmacokinetics in patients undergoing RIC allogeneic HCT for non-malignant disorders (Bayesian analysis of plasma concentrations)
Format: in vivo, human
Conditions: for AUC: human, plasma, intravenous; for Distribution of AUC (h * μg/mL): 3.5-≤6.5 / Distribution of AUC (h * μg/mL): <3.5 / Distribution of AUC (h * μg/mL): >6.5: share of transplants
Experimental: Patients undergoing allogeneic HCT for non-malignant disorders with a uniform RIC regimen that included alemtuzumab, fludarabine and melphalan were enrolled in this study. Full standard dose of melphalan was set as follows: • 140 mg/m^2 in patients having a body weight >10 kg, • 4.7 mg/kg in patients having a body weight <10 kg, and • 70 mg/m^2 in one patient with a radio sensitivity disorder.
The patients were given a test dose of melphalan (10% of the standard full dose) prior to start of their preparative regimen. Test dose of 10% of the full standard dose was determined to be the lowest dose level that would be measurable for a sufficiently long time interval (0-4h) to allow reliable AUC estimation. Accordingly, the test doses used in this study were 14 mg/m^2, 7 mg/m^2 and 0.47 mg/kg for patients having the standard full doses of 140 mg/m^2, 70 mg/m^2 and 4.7 mg/kg, respectively.
Blood samples were obtained for PK measurement after the administration of test dose and the full standard dose of melphalan. A total of 10 blood samples were obtained around each dose of melphalan: at baseline (5-10 min prior to start of the melphalan infusion of) and then approximately at 5 min, 15 min, 30 min, 45 min, 60 min, 2 hour, 2.5, 4, and 6 hours after the end of the melphalan infusion. Samples were collected on ice and transported to the institution's mass spectrometry laboratory for instant analysis by PS-MS/MS and conventional LC-MS/MS. Patient data collected for analysis included baseline organ function, presence of oral and gastrointestinal mucositis, renal and liver dysfunction including VOD, initial donor chimerism, graft rejection, and acute and chronic GVHD (aGVHD and cGVHD). The Common Terminology Criteria for Adverse Events (CTCAE) version 4.0 was used to evaluate adverse events. Acute and chronic GVHD were assessed by standardized published criteria. See, e.g., Glucksberg H, et al. Transplantation. 1974; 18:295-304 and Filipovich A H, et al. Biol Blood Marrow Transplant. 2005; 11:945-956. Interim analyses were completed after enrollment of 5 patients and 10 patients respectively to validate data following 25% and 50% of intended total patient enrollment. The AUC range that led to full donor chimerism without excess toxicity in majority of patients was selected to be the desired target AUC for full dose adjustment. In patients with baseline impaired organ function, personalized full dose melphalan was adjusted to limit toxicity if test dose PK predicted standard full dose AUC was higher than the desired target AUC range.
Melphalan levels were measured by validated PS-MS/MS and LC-MS\MS methods (Mirkou A, etc., J Chromatogr B Analyt Technol Biomed Life Sci. 2009; 877:3089-3096). For the PS-MS/MS method, all samples were analyzed using an automated Paper Spray ion source (Prosolia, Inc. Indianapolis, Ind.) interfaced with a TSQ Quantum Ultra mass spectrometer (Thermo Scientific, San Jose, Calif.) operated in selected reaction monitoring (SRM) mode. XCalibur software was used to control the MS and to process data. Specific precursor/product ions were simultaneously monitored for melphalan and its stable isotopically-labelled internal standard (D8-melphalan) by collision-induced dissociation (CID). Blood samples were prepared by spiking known amounts of melphalan standards and the internal standard into drug free human blood to establish a calibration curve and quality control samples. A small amount of patient's blood […] equilibrated with D8-melphalan solution was deposited on the Paper Spray cartridge and dried. A small volume of solvent optimized to efficiently extract the drug was applied to the paper. A stepwise high voltage (3-5 kV) was then applied inducing an electrospray ionization at the tip of the paper; the solvent evaporates from the droplets generating gas phase ions of the analyte, which then can be detected by a mass spectrometer. […]

[1] = median and range, 16 patients with normal organ function
[2] = median and range, 17 patients who received standard full dose
[3] = median and range, patients <10 kg, normal organ function, n=5, dose 0.47 mg/kg, 0.47 mg/kg
[4] = median and range, patients >10 kg, normal organ function, n=11, dose 14 mg/m^2
[5] = median and range, six patients (7 transplants) with impaired organ function, adjusted full dose
[6] = median, PK-adjusted full dose, N = 6 (7)

N[C@@H](Cc1ccc(N(CCCl)CCCl)cc1)C(=O)O [melphalan, 4-[Bis(2-chloroethyl)amino]-L-phenylalanine]
AUC (median, Standard full dose, N = 17 (17), read-out: Full dose AUC): 5500 ng·h/mL
AUC (median, Total, N = 22 (23), read-out: Test dose AUC): 590 ng·h/mL
AUC (median, Total, N = 23 (24), read-out: Full dose AUC): 5000 ng·h/mL
AUC (patient with normal organ function who developed grade 4 gastrointestinal mucositis, read-out: full dose AUC): 9500 ng·h/mL
AUC (patients with impaired organ function, adjusted full dose, read-out: observed AUC based on the test dose PK guided adjustment): 3900 ± 1400 ng·h/mL
AUC (full dose melphalan, RIC HCT for non-malignant disorders, read-out: AUC range well tolerated without excess toxicity and sufficient to facilitate engraftment with full donor chimerism): 3500 to 6500 ng·h/mL
FCLstd (body weight normalized clearance by allometric scaling) (individual patients, full dose): 27.4 L/h/70 kg and 46.9 L/h/70 kg and 43.1 L/h/70 kg and 66.8 L/h/70 kg and 30.2 L/h/70 kg and 59.4 L/h/70 kg and 62.8 L/h/70 kg and 38.9 L/h/70 kg and 18.6 L/h/70 kg and 38.3 L/h/70 kg and 42.7 L/h/70 kg and 18.8 L/h/70 kg and 33.9 L/h/70 kg and 38.0 L/h/70 kg and 29.4 L/h/70 kg and 15.1 L/h/70 kg and 25.0 L/h/70 kg and 12.3 L/h/70 kg and 43.5 L/h/70 kg and 36.9 L/h/70 kg and 19.7 L/h/70 kg and 50.6 L/h/70 kg and 34.5 L/h/70 kg
Predicted FAUC (test dose PK evaluation) (individual patients, full dose AUC predicted from test dose PK): 2.9 mg · h/L and 6.5 mg · h/L and 5.9 mg · h/L and 5.1 mg · h/L and 5.2 mg · h/L (3×) and 5.7 mg · h/L (2×) and 14.0 mg · h/L and 14.5 mg · h/L and 7.2 mg · h/L and 5.6 mg · h/L and 4.8 mg · h/L and 6.1 mg · h/L and 5.5 mg · h/L and 11.6 mg · h/L and 11.1 mg · h/L and 16.8 mg · h/L and 7.1 mg · h/L and 13.8 mg · h/L and 4.4 mg · h/L and 7.4 mg · h/L
TCLstd (test dose body weight normalized clearance by allometric scaling) (individual patients, test dose): 47.3 L/h/70 kg and 44.0 L/h/70 kg and 38.8 L/h/70 kg and 56.2 L/h/70 kg and 52.2 L/h/70 kg and 47.8 L/h/70 kg and 49.5 L/h/70 kg and 12.1 L/h/70 kg and 45.2 L/h/70 kg and 18.5 L/h/70 kg and 33.1 L/h/70 kg and 27.5 L/h/70 kg and 33.9 L/h/70 kg and 27.0 L/h/70 kg and 32.3 L/h/70 kg and 13.6 L/h/70 kg and 15.7 L/h/70 kg and 11.3 L/h/70 kg and 35.9 L/h/70 kg and 49.6 L/h/70 kg and 19.2 L/h/70 kg and 67.1 L/h/70 kg and 32.8 L/h/70 kg
predicted AUC for standard full dose melphalan [1]: 2.9 to 11.1 µg·h/mL and 5.5 µg·h/mL
test dose AUC [1]: 0.29 to 1.1 µg·h/mL
full dose AUC [2]: 3.0 to 9.5 µg·h/mL
full dose clearance [2]: 38.3 L/h/70 kg and 25.0-66.8 L/h/70 kg
test dose AUC [3]: 0.48 to 1.11 µg·h/mL
test dose clearance [3]: 27.6 L/hr./70 kg and 15.7-34.0 L/hr./70 kg
full dose AUC (median and range, patients <10 kg, standard dose 4.7 mg/kg, n=6, 4.7 mg/kg): 3.0 to 6.9 µg·h/mL
test dose AUC [4]: 0.29 to 0.72 µg·h/mL
test dose clearance [4]: 47.8 L/h/70 kg and 33.1-67.2 L/h/70 kg
full dose AUC (median and range, patients >10 kg, standard dose 140 mg/m2, n=11): 4.1 to 9.5 µg·h/mL
test dose PK predicted AUC for standard full dose (median and range, six patients (7 transplants) with impaired organ function): 13.8 µg·h/mL and 11.1 to 16.4 µg·h/mL
test dose AUC [5]: 0.7 to 1.45 µg·h/mL
test dose clearance [5]: 18.5 L/hr./70 kg and 11.3-35.9 L/hr./70 kg
Test dose PK predicted full close AUC (median, PK-adjusted full dose): 13.8 µg·h/mL
Full dose CL [6]: 18.8 L/h/70 kg
Test dose CL [6]: 45.2 L/h/70 kg
Test dose PK predicted full close AUC (median, Standard full dose): 5.7 µg·h/mL
Test dose CL (median, Standard full dose, N = 16 (16)): 18.5 L/h/70 kg
Full dose CL (median, Standard full dose, N = 17 (17)): 38.3 L/h/70 kg
Test dose PK predicted full close AUC (median, Total): 5.9 µg·h/mL
Test dose CL (median, Total, N = 22 (23)): 33.9 L/h/70 kg
Full dose CL (median, Total, N = 23 (24)): 37.4 L/h/70 kg
full dose AUC if given standard full dose (patients with impaired organ function, predicted from test dose PK): 11.0 ± 3.6 µg·h/mL
Distribution of AUC (h * μg/mL): 3.5-≤6.5 (PK-adjusted full dose): 85.7%
Distribution of AUC (h * μg/mL): <3.5 (PK-adjusted full dose): 14.3%
Distribution of AUC (h * μg/mL): >6.5 (PK-adjusted full dose): 0.0%
Distribution of AUC (h * μg/mL): 3.5-≤6.5 (Standard full dose): 70.6%
Distribution of AUC (h * μg/mL): <3.5 (Standard full dose): 5.9%
Distribution of AUC (h * μg/mL): >6.5 (Standard full dose): 23.5%
Distribution of AUC (h * μg/mL): 3.5-≤6.5 (Total): 75.0%
Distribution of AUC (h * μg/mL): <3.5 (Total): 8.3%
Distribution of AUC (h * μg/mL): >6.5 (Total): 16.7%
